Measurements: patent publication US10548897B2, “KSR antagonists” (Icahn School of Medicine at Mount Sinai, priority 2015, dated 2020)

How the values were obtained:
[1] = tested on: ERK phosphorylation in HCT-116 cell line; test: ERK phosphorylation dose response to trametinib, HCT-116; format: cell-based; conditions: HCT-116 (Ras-mutant)
ERK = test: Inhibitory activity against purified ERK; format: biochemical
HCT-116 = test: Cell viability, combination with trametinib, HCT-116; format: cell-based
Description: High BLISS scores indicate statistically significant synergy between Compound 21 and trametinib specifically within K-Ras mutant cells. Numbers listed within synergy matrices, representing % growth inhibition relative to DMSO controls, are mean of two replicates. Insets highlight dose responses of trametinib in the absence or presence of 1 μM Compound 21.
FIGS. 13A-13D show data validating that Compound 21 is synergistic with trametinib in Ras-mutant cells. […] FIGS. 13C-13D show log of the combination index (CI) graphs of Compound 21 in combination with trametinib in HCT-116 vs. SK-MEL-239 cells as compared to the fractional effect (Fa).
The viability ratio represented the viability observed for treated (inhibitors) relative to controls (DMSO).

HEK293 cells = test: FBS-induced ERK activation in serum-starved HEK293 cells; format: cell-based; conditions: 2 h pre-treatment, 5% FBS induction, compared with KSR1 siRNA
Description: FIGS. 10A-10B show KSR1 knockdown and Compound 21 treatment similarly block FBS-induced ERK activation. In FIG. 10A, HEK293 cells were serum starved for 24 hours and simultaneously treated with two independent siRNAs against KSR1. siNTC was used as a scrambled control. After induction with 5% FBS, cells were harvested at […]. In FIG. 10B, HEK293 cells were similarly serum starved and pre-treated with Compound 21 for 2 h before induction. The cells were then induced with FBS as in FIG. 10A.

[2] = target: KSR2 (purified hKSR2-rMEK1 complex) (Homo sapiens (Human), UniProt Q6VAB6); test: ATP-biotin probe labeling and inhibitor competition (KSR2 band); format: binding; conditions: ATPbiotin probe labeling competition; 0.1 μM KSR2:MEK1; 27 nM to 20 μM compound; triplicate; read-out: KSR2 IC50
Description: Human KSR2 (residues 634-950) and rabbit MEK1 (residues 1 to 393) were codon optimized for insect cell expression by DNA 2.0. Inserts were expressed with TEV cleavable 6×-His tags from the pFastBac Dual expression vector. Bacmids were used to transfect adherent SF21 cells and viruses were subsequently titred to high levels through serial infections of SF21 cells. […] Briefly, following infections, cells were harvested, lysed, and affinity purified using Co2+ sepharose resin (GoldBio). […] Dialysis retentate was diluted 3 fold and then applied to a Resourse S ion exchange column. […] One-to-one hKSR2-MEK1 complexes were captured in late fractions from an increasing salt gradient. Complexes were later applied to a 120 mL Superdex 200 gel filtration column and finally concentrated to approximately 10 mg/mL before flash freezing for biochemical assays.
The ATP-biotin assay was performed in buffer containing 25 mM Tris pH 7.5, 150 mM NaCl, 10 mM MgCl2, and 2% DMSO. […] In particular, hKSR2-rMEK1 was pre-incubated with 20 μM of the indicated compounds for 15 minutes. Then, ATP-biotin (Pierce Cat. #88310) was added to a final concentration of 2 μM. Reactions were incubated at room temperature for 5 minutes before being stopped by the addition of 6×SDS loading dye. […] Enhanced chemiluminescence signals corresponding to labeling on KSR2 and MEK1 were visualized and quantified using the Biodoc system (Biorad). Relative signals of Streptavidin HRP on bands corresponding to KSR2 and MEK1 in the presence of compounds relative to DMSO controls were used to determine ‘Percent Inhibition of ATP Probe Labeling’.
For the ATP^biotin labeling competition screen, samples were applied to a 4-20% Tris-HCl gel, separated, and then transferred to a nitrocellulose membrane. The membrane was blocked with 5% bovine serum albumin diluted in TBS-T for 30 minutes and subsequently probed with the Pierce™ High Sensitivity Streptavidin-HRP. After several washes, the membranes were visualized using enhanced chemiluminescence on a Biodoc (Biorad).

[3] = target: KSR2^A690F:MEK1 phosphorylation by B-RAF (Homo sapiens (Human), UniProt Q6VAB6, A690F); test: RAF phosphorylation assay, KSR2^A690F:MEK1 substrate; format: biochemical; conditions: 10 μM compound
Description: (§1) FIGS. 9A-9C show phosphorylation of MEK1, KSR2:MEK1, and KSR2^A690F:MEK1 by B-RAF over time in the presence of Compound 21. Relative pMEK was determined by quantification of band intensities from western blots using Image Lab Software 4.1.
(§2) In particular, a variant of B-RAF was identified that could be expressed in high yield from E. Coli and which also retained near wild-type levels of kinase activity towards MEK1. For in vitro kinase assays, indicated concentrations of B-RAF and 1 μM KSR2-MEK1 or 1 μM MEK1 proteins were pre-incubated with 10 μM of indicated compounds for 15 minutes in buffer containing 25 mM Tris pH 7.5, 150 mM NaCl, 10 mM MgCl2, and 2% DMSO. Kinase reactions were initiated by the addition of 100 μM ATP and halted at the indicated times by the addition of 6×SDS loading dye. Samples were examined by western blotting as described for the ATP-biotin experiments and by probing overnight with a MEK1/2 Ser218-Ser222 phospho-specific antibody (Cell signaling). Membranes were visualized using enhanced chemiluminescence on a Biodoc (Biorad) for quantification purposes.

[4] = target: KSR2:MEK1 phosphorylation by B-RAF (Homo sapiens (Human), UniProt Q6VAB6); test: RAF phosphorylation assay, KSR2:MEK1 substrate; format: biochemical; conditions: 10 μM compound, 100 μM ATP, pMEK Ser218/Ser222
Description: as §1, §2

[5] = tested on: MEK1 phosphorylation by B-RAF; test: RAF phosphorylation assay, MEK1 alone (KSR absent); format: biochemical; conditions: 10 μM compound, free MEK1
Description: as §1, §2

In the case of COc1cc2ncnc(Nc3ccc(Oc4ccccc4)cc3C)c2cc1OC [Compound 21, 6,7-Dimethoxy-N-(2-methyl-4-phenoxyphenyl)quinazolin-4-amine 2,2,2-trifluoroacetate], the “enhancement in the IC90 of trametinib on ERK phosphorylation” value [1] is reported as 2 fold, the “inhibitory activity against purified ERK” value (ERK) is reported as “lacked detectable inhibitory activity” and the “shift of cell viability dose response to trametinib” value (HCT-116; HCT-116 (Ras-mutant)) is reported as “shifted the cell viability dose response to trametinib”. For the same compound, the “combination index (CI) with trametinib” value (HCT-116; HCT-116, negative log CI over broad Fa range) was “strong synergy”, the “effect on FBS-induced ERK activation” value (HEK293 cells) was “mimic the effects of RNAi based knockdown of KSR1” and the IC50 [2] was 120 ± 23 nM. For the same compound, the “MEK phosphorylation by RAF, KSR2^A690F mutant” value [3] was “essentially inactive”, the “KSR-stimulated MEK phosphorylation by RAF” value [4] was “significantly reduced” and the “MEK phosphorylation by RAF, KSR absent” value [5] was “essentially inactive”.
